Reference: patent US7674803B2, “Thiazolypiperidine derivatives as MTP inhibitors” (Merck Patent GmbH, priority 2003, dated 2010)

Legend:
[1] = target: T1, microsomal triglyceride transfer protein (MTP) (Mesocricetus auratus, UniProt P55158); test: Inhibition of MTP activity (transfer of labelled triglyceride from donor to acceptor particle, SPA); type: biochemical; conditions: MTP from golden hamster liver microsomes; [3H]-triolein transfer to LDL-biot; incubation 18-24 hours at 37° C.; read-out: IC50, concentration that allows a 50% inhibition of MTP
T1 construct: The supernatant comprising the soluble MTP is dialysed; from tissue; host or cells: golden hamster liver microsomes, deoxycholate-solubilised
T1 sequence (P55158 19-895): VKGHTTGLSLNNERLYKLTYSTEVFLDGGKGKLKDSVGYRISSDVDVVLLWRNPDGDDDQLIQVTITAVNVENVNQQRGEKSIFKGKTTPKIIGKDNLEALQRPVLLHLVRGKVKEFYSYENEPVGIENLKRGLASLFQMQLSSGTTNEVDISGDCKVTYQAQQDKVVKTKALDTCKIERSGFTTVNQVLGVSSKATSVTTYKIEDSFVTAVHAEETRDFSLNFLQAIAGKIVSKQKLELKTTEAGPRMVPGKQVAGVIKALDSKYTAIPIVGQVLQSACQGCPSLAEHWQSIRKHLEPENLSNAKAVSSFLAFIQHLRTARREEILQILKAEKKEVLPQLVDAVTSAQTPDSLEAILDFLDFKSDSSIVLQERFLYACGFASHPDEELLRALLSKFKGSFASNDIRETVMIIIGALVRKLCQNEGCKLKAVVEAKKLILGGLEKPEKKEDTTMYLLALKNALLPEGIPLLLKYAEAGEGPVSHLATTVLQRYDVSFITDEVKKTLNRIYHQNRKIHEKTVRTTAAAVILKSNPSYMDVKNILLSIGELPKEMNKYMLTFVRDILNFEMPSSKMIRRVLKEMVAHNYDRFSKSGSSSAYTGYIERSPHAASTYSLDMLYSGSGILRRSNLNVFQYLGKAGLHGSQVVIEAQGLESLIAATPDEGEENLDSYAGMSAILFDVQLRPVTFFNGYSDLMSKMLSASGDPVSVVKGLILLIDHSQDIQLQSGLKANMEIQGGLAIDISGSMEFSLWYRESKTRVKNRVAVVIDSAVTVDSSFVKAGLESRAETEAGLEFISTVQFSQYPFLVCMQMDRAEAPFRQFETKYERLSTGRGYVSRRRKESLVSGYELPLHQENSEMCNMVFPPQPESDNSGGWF
Method: Analysis of the Inhibition of MTP Activity
The inhibition of the activity of microsomal triglyceride transfer protein (MTP) was tested by using the following operating protocol.
The inhibition of MTP activity with a compound can be quantified by observing the inhibition of the transfer of a labelled triglyceride, from a donor particle to an acceptor particle, in the presence of MTP. The procedure for the preparation of MTP is based on the method by Wetterau and Zilversmit (Biochem. Biophys. Acta (1986) 875, 610). A few grams of golden hamster liver are taken and then rinsed several times in a 250 mM sucrose solution at 0° C. All the following steps proceed at +4° C. A homogenate at a concentration of 50% in 250 mM sucrose is prepared using a Teflon mill and then centrifuged for 10 minutes at 10 000× g at +4° C. The supernatant is then centrifuged at 105 000× g for 75 minutes at +4° C. The supernatant is discarded and the microsomal pellet is taken up in 3 ml (per g of starting liver) of Tris/HCl 150 mM pH 8.0. 1-ml aliquot fractions are stored at −80° C. until the time of use.
After thawing a fraction of microsomes (1 ml), 12 ml of refrigerated Tris/HCl 50 mM, KCl 50 mM, MgCl2 5 mM pH 7.4 buffers and 1.2 ml of deoxycholate (0.54% in water) are added. After incubation for 30 minutes at +4° C. with gentle agitation, the suspension is centrifuged at 105 000× g for 75 minutes. The supernatant comprising the soluble MTP is dialysed against Tris/HCl 150 mM, NaCl 40 mM, EDTA 1 mM, 0.02% sodium azide pH 7.4 buffer (5 times one litre over 2-3 days). The MTP is stored at +4° C., is stable for at least 30 days and is used in unmodified form in the test.
The donor particles (liposomes) are prepared from 208 μL of L-phosphatidylcholine at a concentration of 10 mg/ml in chloroform, and 480 μL of. [3H]-triolein at a concentration of 0.5 mCi/ml in toluene. After stirring, the solution is evaporated under nitrogen, taken up in 6 ml of Tris/HCl 50 mM, KCl 50 mM, MgCl2 5 mM pH 7.4 buffer and incubated in an ultrasound bath for 30 minutes at room temperature. The liposomes are stored at +4° C. and sonicated again for 10 minutes before each use.
The acceptor particles are biotinylated low density lipoproteins (LDL-biot). These particles are supplied by the company Amersham.
The reaction mixture is prepared in untreated 1/2 well white plates (Corning Costar) by addition, in the following order, of: 5 μL of HEPES 50 mM, NaCl 150 mM, BSA 0.1% (w/v), 0.05% sodium azide (w/v), pH 7.4 buffer; 5 μL of liposomes; 5 μL of LDL-biot; 5 μL of test products in DMSO; 5 μL of MTP. After incubation for 18-24 hours at 37° C., the reaction is stopped by adding 100 μL of Amersham SPA (Scintillation Proximity Assay) beads coupled to streptavidin, and the radioactivity is counted using a Top Count (Packard) machine at least one hour later. The inhibition of the transfer of the triglycerides with a compound is reflected by a reduction in the transferred radioactivity.
The results are expressed in terms of the IC50, i.e. the concentration that allows a 50% inhibition of MTP.

[2] = system: apo B secretion in HepG2 cells; test: Inhibition of apo B secretion in HepG2 cells (sandwich-ELISA); type: cell-based; conditions: 24 hours incubation, culture supernatant tested by ELISA specific for human apo B, read-out: IC50, concentration that produces a 50% inhibition of apo B secretion in the HepG2 cells
Method: Analysis of the Reaction of apo B in the HepG2 Human Cell Line:
The activity of a compound according to the invention can be evaluated by measuring the inhibition of apo B secretion in HepG2 cells.
The HepG2 cells (ECACC—No. 85011430) are used as model in the study of the in vitro hepatic secretion of lipoproteins (Dixon J. and Ginsberg H., J. i Lipid. Res., 1993, 34, 167-179).
The HepG2 cells are cultured in Dulbecco's modified Eagle's medium comprising 10% foetal calf serum (DMEM and FBS-Gibco) in 96-well plates under an atmosphere of 5% carbon dioxide for 24 hours (about 70% confluence).
The test compounds are dissolved at a concentration of 2 or 10 mM in dimethyl sulfoxide (DMSO). Serial dilutions (1:3.16) are made in DMSO and are added (1:200—Robot Multimek Beckman) to the growth medium (200 μL) and then finally incubated for 24 hours in the various wells containing the HepG2cells.
The 24-hour culture supernatant diluted to 1:5 (phosphate-buffered saline: PBS comprising 1% bovine serum albumin) is tested according to a sandwich-ELISA method specific for human apo B.
The results are expressed in terms of IC50, i.e. the concentration that produce a 50% inhibition of apo B secretion in the HepG2 cells.

Compound `CCN(C(=O)c1csc(C2CCN(C(=O)c3cccc(C)c3-c3ccc(OC(F)(F)F)cc3)CC2)n1)C(C)C(=O)c1ccccc1` (stereo not shown) [Example 1, 2-[1-(6-Methyl-4’-trifluoromethoxybiphenyl-2-carbonyl)piperid-4-yl]thiazol-4-carbonyl[N-ethyl-N-(1-methyl-2-oxo-2-phenylethyl)]amide] has an IC50 [1] of 51 nM and an IC50 [2] of 20 nM.
Work on `CCN(C(=O)c1csc(C2CCN(C(=O)c3ccccc3-c3ccc(C(F)(F)F)cc3)CC2)n1)C(C)C(=O)c1ccccc1` (stereo not shown) [Example 3] yielded an IC50 [1] of 57 nM and an IC50 [2] of 12 nM.
In the case of `CC(C(=O)c1ccccc1)N(C)C(=O)c1csc(C2CCN(C(=O)c3ccccc3-c3ccc(C(F)(F)F)cc3)CC2)n1` (stereo not shown) [Example 4], the IC50 [1] is reported as 720 nM and the IC50 [2] is reported as 307 nM.
In the case of `C[C@H](C(=O)c1ccccc1)N(C)C(=O)c1csc(C2CCN(C(=O)c3ccccc3-c3ccc(C(F)(F)F)cc3)CC2)n1` [Example 5], the IC50 [1] is reported as 660 nM and the IC50 [2] is reported as 286 nM.
With `CCN(C(=O)c1csc(C2CCN(C(=O)c3ccccc3-c3ccc(C(F)(F)F)cc3)CC2)n1)C(C)C(=O)c1cccnc1` (stereo not shown) [Example 6] the IC50 [1] was 385 nM and the IC50 [2] was 288 nM.
`CCN(C(=O)c1csc(C2CCN(C(=O)c3ccccc3-c3ccc(C(F)(F)F)cc3)CC2)n1)C(C#N)c1ccccc1` (stereo not shown) [Example 9] gave an IC50 [1] of 58 nM and an IC50 [2] of 7 nM.
With `CC(C)N(C(=O)c1csc(C2CCN(C(=O)c3ccccc3-c3ccc(C(F)(F)F)cc3)CC2)n1)C(C#N)c1ccccc1` (stereo not shown) [Example 10] the IC50 [1] was 167 nM.
